Measurements reported in patent publication US7947701B2, “Dual molecules containing peroxy derivative, the synthesis and therapeutic applications thereof” (Sanofi-Aventis, priority 2003, dated 2011).
Where two headings read alike, the source gives them in different places.

Tests used:
[1] = tested on: P. falciparum FcM29-Cameroon strain; test: Antimalarial chemosensitivity test (radioactive micromethod, tritiated hypoxanthine incorporation) on FcM29-Cameroon strain; format: cell-based; conditions: Plasmodium falciparum, Erythrocyte, read-out: IC50 (concentration required to inhibit parasite growth by 50%)
Description: (§1) The P. falciparum strains are cultured continuously according to the method of Trager and Jensen (Science, 1976, 193, 673-675): the parasites are maintained in human red blood cells (O±), diluted to a blood parasite level of 2% in RPMI 1640 medium supplemented with 25 mM of Hepes+24 mM NaHCO3+2 mM L-glutamine and with 5% of human serum of all groups. The parasites are incubated at 37° C. in a humid atmosphere and at 5% CO2.
The antimalarial activity tests are carried out according to the radioactive micromethod of Desjardins et al. (Antimicrob. Agents Chemother., 1979, 16, 710-718). Each molecule is tested in triplicate. The assays are carried out in 96-well microplates. The P. falciparum strains are cultured in solutions of RPMI 1640 supplemented with 5% of human serum with a haematocrit at 2% and a blood parasite level at 1.5%. For each assay, the parasites are incubated with decreasing concentrations of the test compounds for 48 h at 37° C., in a humid atmosphere and at 5% CO2. Artemisinin and chloroquine diphosphate are used as reference molecules. The first dilution of the test compounds is effected at 1 mg/ml in dimethyl sulphoxide. The dilution range for the successive daughter solutions is also prepared in dimethyl sulphoxide. Each daughter dilution is then diluted to 1/50th in RPMI 1640 supplemented with 5% of human serum, all the dilutions being carried out at 37° C. These dilutions are then added to the parasites in culture in the microplates. After addition of the test compound, the parasites are cultured in RPMI 1640 containing 5% of human serum and 1% of dimethyl sulphoxide. The parasite growth is measured by incorporation of tritiated hypoxanthine (added 24 h after the beginning of exposure to the test compound) and compared to the incorporation in the absence of the test compound (taken as 100%). The IC50 values (concentrations required to inhibit parasite growth by 50%) are determined by plotting the percentage inhibition as a function of the logarithm of the dose, using the GraphPad Prism 4® processing software (GraphPad Software Inc., 5755 Oberlin Drive, #110, San Diego, Calif. 92121, USA).

[2] = tested on: P. falciparum FcB1-Columbia strain; test: Antimalarial chemosensitivity test (radioactive micromethod, tritiated hypoxanthine incorporation) on FcB1-Columbia strain; format: cell-based; conditions: Plasmodium falciparum, read-out: IC50 (concentration required to inhibit parasite growth by 50%)
Description: as §1
The antimalarial activity tests are carried out according to the radioactive micromethod of Desjardins et al. (Antimicrob. Agents Chemother., 1979, 16, 710-718). Each molecule is tested in triplicate. The assays are carried out in 96-well microplates. The P. falciparum strains are cultured in solutions of RPMI 1640 supplemented with 5% of human serum with a haematocrit at 2% and a blood parasite level at 1.5%. For each assay, the parasites are incubated with decreasing concentrations of the test compounds for 48 h at 37° C., in a humid atmosphere and at 5% CO2. Artemisinin and chloroquine diphosphate are used as reference molecules. The first dilution of the test compounds is effected at 1 mg/ml in dimethyl sulphoxide. […] The parasite growth is measured by incorporation of tritiated hypoxanthine (added 24 h after the beginning of exposure to the test compound) and compared to the incorporation in the absence of the test compound (taken as 100%). […]

Row | IC50 ([2]; Erythrocyte, FcB1-Columbia strain (moderately chloroquine resistant), in human red blood cells, 48 h incubation) | IC50 ([1]; FcM29-Cameroon strain (very strongly chloroquine resistant), in human red blood cells, 48 h incubation) | Structure (SMILES) | IC50 ([1]; 48 h) | IC50 ([2]; FCB1, Erythrocyte, 48 h)
1 |  |  | CC(C)C1=C[C@H]2OC3(CCN(CCCNc4ccnc5cc(Cl)ccc45)CC3)OO[C@@]2(C)CC1 [PA1011] | 13 nM | 
2 |  |  | Clc1ccc2c(NCCN3CCC4(CC3)OOC3(O4)C4CC5CC(C4)CC3C5)ccnc2c1 (stereo not shown) [PA1021, 7-Chloro-N-[2-(1H-dispiro[piperidine-4,3′-[1,2,4]trioxolane-5′,2″-tricyclo[3.3.1.1^3,7]decan]-1-yl)ethyl]quinolin-4-amine] | 6 nM | 
3 |  |  | CN(C)c1ccc2nccc(NCCN3CCC4(CC3)OOC3(O4)C4CC5CC(C4)CC3C5)c2c1 (stereo not shown) [PA1026, N^4-[2-(1H-Dispiro[piperidine-4,3,-[1,2,4]trioxolane-5′,2″-tricyclo[3.3.1.1^3,7]decan]-1-yl)ethyl]-N^6,N^6-dimethylquinoline-4,6-diamine] | 4.4 nM | 
4 | 11 nM | 5 nM | C[C@@H]1CC[C@H]2[C@@H](C)C(=O)O[C@@H]3O[C@@]4(C)CC[C@@H]1[C@]32OO4 [artemisinin] |  | 
5 |  |  | CCN(CC)CCCC(C)Nc1ccnc2cc(Cl)ccc12 (stereo not shown) [chloroquine] | 258 nM | 66 nM
